Results on 5 compounds are retold here after paper PMC6479711, “Chemical Constituents of Anacardium occidentale as Inhibitors of Trypanosoma cruzi Sirtuins” (Molecules, 2019).

The target of one series is TcSir2rp1 (Trypanosoma cruzi, UniProt Q4DVL9). Briefly: TcSir2rp1 deacetylase activity assay (fluorogenic peptide, NAD+). As to conditions: recombinant enzyme; 30 min pre-incubation; sirtuin activity determined 4 h after incubation; read-out: TcSir2rp1 EC50 ± SEM. Type of series: biochemical.
The next series concerns the target TcSir2rp3 (Trypanosoma cruzi, UniProt Q4E5B9, K2R). Kind of series: TcSir2rp3 deacetylase activity assay (fluorogenic peptide, NAD+). Type of series: biochemical. As for the experimental part: Recombinant TcSir2rp3 was obtained as described previously by. The TcSir2rp3 gene was amplified from the genomic DNA of the T. cruzi Y strain using the oligonucleotides TcSir2rp3_BamHI_F_5′-[…] AGG-3′ and TcSir2rp3_XhoI_R_5′-[…]-3′ and cloned into pET28a (Novagen, Itapira, Brazil). The recombinant vector was used to transform ArcticExpress DE3 bacteria (Agilent Technologies) and protein was expressed by induction with 0.1 mM IPTG at 12 °C.
Deacetylase assays were performed from the protocol established previously by. In summary, the reaction was performed in two steps. In the first step, a synthetic peptide as the substrate (Abz-Gly-Pro-acetyl-Lys-Ser-Gln-EDDnp, where Abz is ortho-aminobenzoic acid and EDDnp is N-[2,4-dinitrophenyl]ethylenediamine) was dissolved in 50 µL of 25 mM Tris-HCl (pH 8.0), 137 mM NaCl, 2.7 mM KCl, and 1 mM MgCl2 containing 0.6 mM NAD^+ (Sigma-Aldrich). TcSir2rp1 or TcSir2rp3 were added and the reactions performed for 4 h at 30 °C. In the inhibition experiments, the enzyme was pre-treated for 30 min at room temperature with the indicated compounds and the addition of the substrate started the reaction. […] After further incubation for 15 min, the fluorescence at 420 nm was read (excitation, 320 nm) in a SpectraMax M3 plate reader (Molecular Devices, Sunnyvale, CA, USA).

The subject of series [1] is Trypomastigote forms of T. cruzi (Y strain). Kind of series: Activity against trypomastigotes (viable parasite count). Type of series: cell-based, Trypanosoma cruzi. As to conditions: for EC50: read-out: Trypomastigote EC50 ± SEM. The procedure:
All experiments were performed with the Y strain of T. cruzi. Trypomastigote forms of T. cruzi were obtained from the supernatant of infected LLC-MK2 cells and maintained in DMEM supplemented with 10% FBS and Penicillin-Streptomycin (100 U/mL) (all from Gibco/Life Technologies) at 37 °C with 5% CO2.
Trypomastigotes were incubated in 96-well plates (2 × 10^6 cells/mL) in DMEM, in the presence or absence of the compounds at different concentrations for 24 h. […] Each compound concentration was tested in triplicate, and three independent experiments were performed. The reference drug, benznidazole, was used as the positive control.

Series [2] deals with intracellular amastigotes of T. cruzi in infected hFIB. Kind of series: In vitro T. cruzi infection assay (intracellular amastigotes in hFIB, high content imaging). It counts as cell-based, Trypanosoma cruzi. The following applies: read-out: Amastigote EC50 ± SEM. The procedure: All experiments were performed with the Y strain of T. cruzi. […] The culture was washed with saline solution and infected with trypomastigotes (10 parasites:1 host cell). Following 24 h of incubation, the non-internalized parasites were removed by washing with saline solution, and fresh medium, with or without compounds at different concentrations, was added to the culture before the incubations proceeded for 72 h. Cells were then fixed and stained by the addition of 50 μL of a solution containing 4% paraformaldehyde and 4 μM Draq5 DNA dye (BioStatus, Shepshed, UK) per well. Plates were imaged in an Operetta High Content Imaging System (PerkinElmer, Waltham, MA, USA) confocal microscope using a 10X air objective. Nine images were collected from each well for reliable statistical analysis. The percentage of intracellular parasites was determined and compared to the negative control, and compound antiparasitic activity was also expressed as EC50. The reference drug, benznidazole, was used as the positive control at 50 µM. Each drug concentration was carried out in triplicate.

Series [3] can be described thus: Host cell toxicity (AlamarBlue). The following applies: human, hFIB viability 72 h after treatment, read-out: hFIB CC50 ± SEM. Type of series: cell-based, human. As for the experimental part: (§1) Human primary skin fibroblasts (hFIB) were obtained from patient skin biopsy and cultured in Dulbecco’s Modified Eagle Medium (DMEM) supplemented with 10% fetal bovine serum (FBS) and Penicillin-Streptomycin (0.2 U/mL) (all from Gibco/Life Technologies, Grand Island, NY, USA). The cells were seeded on 96-well plates at 3 × 10^4 cells/mL and treated with the drugs for 72 h of incubation time. Following the treatments, cells were washed with saline solution twice, and cell viability was determined by the AlamarBlue assay (Thermo Fisher Scientific, Carlsbad, CA, USA), according to the manufacturer’s instructions. Colorimetric readings were performed after 24 h at 570 and 600 nm. Fifty-percent cytotoxic concentration (CC50) values were calculated using data points gathered from three independent experiments.

The subject of series [4] is Human primary skin fibroblasts (hFIB). Kind of series: Host cell toxicity (AlamarBlue). Type of series: cell-based. As to conditions: for hFIB CC50 ± SEM: hFIB viability 72 h after treatment. As for the experimental part: as §1
Series [5] has as its system amastigote forms of T. cruzi in infected hFIB. Briefly: In vitro drug combination of compound 2 and benznidazole in infected hFIB (Chou-Talalay CI). Type of series: cell-based. As to conditions: Trypanosoma cruzi, 72 h, read-out: EC50 ± SD, alone. As for the experimental part: The culture was washed with saline solution and infected with trypomastigotes (10 parasites:1 host cell). Following 24 h of incubation, the non-internalized parasites were removed by washing with saline solution, and fresh medium, with or without compounds at different concentrations, was added to the culture before the incubations proceeded for 72 h. Cells were then fixed and stained by the addition of 50 μL of a solution containing 4% paraformaldehyde and 4 μM Draq5 DNA dye (BioStatus, Shepshed, UK) per well. Plates were imaged in an Operetta High Content Imaging System (PerkinElmer, Waltham, MA, USA) confocal microscope using a 10X air objective. Nine images were collected from each well for reliable statistical analysis. The percentage of intracellular parasites was determined and compared to the negative control, and compound antiparasitic activity was also expressed as EC50. The reference drug, benznidazole, was used as the positive control at 50 µM. Each drug concentration was carried out in triplicate.

Setting [6] is: Y strain, 24 h after incubation with compounds.
Where [7] appears, read: Trypanosoma cruzi, 72 h, infected hFIB, 72 h after treatment.
Setting [8] is: infected hFIB, 72 h after treatment.
Setting [9] is: human primary skin fibroblasts (hFIB).

Like-named read-outs stand apart in the source and are kept apart here. Bounds are passed on as bounds.

Chain of TcSir2rp3 (Q4E5B9 whole entry K2R): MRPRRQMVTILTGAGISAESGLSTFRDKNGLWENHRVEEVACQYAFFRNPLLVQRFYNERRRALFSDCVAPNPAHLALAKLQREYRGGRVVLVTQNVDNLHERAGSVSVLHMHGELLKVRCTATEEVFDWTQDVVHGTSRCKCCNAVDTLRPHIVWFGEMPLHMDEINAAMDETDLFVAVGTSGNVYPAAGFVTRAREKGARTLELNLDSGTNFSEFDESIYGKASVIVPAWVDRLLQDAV
Chain of TcSir2rp1 (Q4DVL9 entry or part of it): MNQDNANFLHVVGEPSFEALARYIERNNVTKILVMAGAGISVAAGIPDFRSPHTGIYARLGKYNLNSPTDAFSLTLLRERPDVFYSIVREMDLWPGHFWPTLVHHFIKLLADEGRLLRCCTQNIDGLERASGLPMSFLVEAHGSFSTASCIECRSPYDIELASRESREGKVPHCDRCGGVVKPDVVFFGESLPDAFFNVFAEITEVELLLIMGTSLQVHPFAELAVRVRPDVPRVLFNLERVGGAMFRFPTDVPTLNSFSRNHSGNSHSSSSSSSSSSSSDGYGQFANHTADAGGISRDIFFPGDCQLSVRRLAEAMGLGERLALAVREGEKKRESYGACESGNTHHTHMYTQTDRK
Protocol for TcSir2rp1: Deacetylase assays were performed from the protocol established previously by [8]. In summary, the reaction was performed in two steps. In the first step, a synthetic peptide as the substrate (Abz-Gly-Pro-acetyl-Lys-Ser-Gln-EDDnp, where Abz is ortho-aminobenzoic acid and EDDnp is N-[2,4-dinitrophenyl]ethylenediamine) was dissolved in 50 µL of 25 mM Tris-HCl (pH 8.0), 137 mM NaCl, 2.7 mM KCl, and 1 mM MgCl2 containing 0.6 mM NAD^+ (Sigma-Aldrich). TcSir2rp1 or TcSir2rp3 were added and the reactions performed for 4 h at 30 °C. In the inhibition experiments, the enzyme was pre-treated for 30 min at room temperature with the indicated compounds and the addition of the substrate started the reaction. In the second step, the reactions were stopped with 50 µL of a solution containing 12 mM nicotinamide in 100 mM NaCl and 50 mM Tris-HCl (pH 8.0), in the absence or presence of 0.6 mg/mL trypsin (Sigma-Aldrich). After further incubation for 15 min, the fluorescence at 420 nm was read (excitation, 320 nm) in a SpectraMax M3 plate reader (Molecular Devices, Sunnyvale, CA, USA).

With `CCC/C=C\C/C=C\CCCCCCCc1cccc(O)c1C(=O)O` [Compound 5, 2-Hydroxy-6-(8Z,11Z)-8,11-pentadecadien-1-ylbenzoic acid], the EC50 on TcSir2rp1 is 23.3 ± 2.51 µM; at TcSir2rp3 it was 6.08 ± 1.16 µM; in series [2] (setting [7]), around 40 µM; in series [2] (setting [8]) it was 41.7 ± 5.53 µM. Moreover, the “Trypomastigote EC50 ± SEM” value in series [1] (setting [6]) is on record as “no effect”. Moreover, the CC50 at 72 h in series [3] (setting [9]) was above 100 µM. Also, the “hFIB CC50 ± SEM” value in series [4] was “not toxic”.
With `O=C(Cn1ccnc1[N+](=O)[O-])NCc1ccccc1` [Benznidazole, reference compound], the EC50 in series [1] (Trypanosoma cruzi, Y strain, 24 h after incubation with compounds) is 11.4 ± 1.09 µM; in series [2] (Trypanosoma cruzi, 72 h), 3.13 ± 0.87 µM; in series [5] it was 2.17 ± 0.09 µM. Further, in series [3] (setting [9]), the CC50 at 72 h was above 100 µM. Moreover, the “SI (selectivity index), ratio of CC50 (hFIB) to EC50 (amastigote)” value in series [4] is given as above 32.
On to `C=CC/C=C\C/C=C\CCCCCCCc1cc(O)cc(O)c1` [Compound 1, 5-(8Z,11Z)-8,11,14-Pentadecatrien-1-yl-1,3-benzenediol], for which the EC50 in series [1] (Trypanosoma cruzi, 24 h) came to 23.36 ± 0.12 µM; in series [2] (setting [7]) it was 11.8 ± 0.4 µM. The CC50 at 72 h in series [3] came out at 47.17 ± 0.1 µM. The “SI (selectivity index), ratio of CC50 (hFIB) to EC50 (amastigote)” value in series [4] was 4.
In the case of `CCCCCC/C=C\CCCCCCCc1cccc(O)c1C(=O)O` [Compound 6, 2-Hydroxy-6-(8Z)-8-pentadecenylbenzoic acid], the EC50 at TcSir2rp1 is 16.2 ± 4.88 µM; on TcSir2rp3, 7.41 ± 0.65 µM; in series [2] (setting [7]), around 40 µM; in series [2] (setting [8]) it was 42.4 ± 5.11 µM. Also, the “Trypomastigote EC50 ± SEM” value in series [1] (setting [6]) is given as “no effect”. For the same compound, the CC50 at 72 h in series [3] (setting [9]) was above 100 µM. Also, in series [4], the “hFIB CC50 ± SEM” value is given as “not toxic”.
Consider “3-(8Z)-8-Pentadecen-1-ylphenol [Compound 4]”, for which the EC50 in series [1] (setting [6]) amounted to 43.5 ± 2.32 µM; in series [2] (setting [8]), 15.3 ± 2 µM. The same compound displayed a CC50 in series [4] of 45.47 ± 0.27 µM.
